Data from US20100190724A1, “USE OF MELANOCYTE-STIMULATING HORMONE RELEASE-INHIBITING FACTOR AS A THERAPEUTIC AGENT IN THE TREATMENT OF PSEUDOMONAS AERUGINOSA INFECTION” (priority 2007, published 2010).
Where a SMILES comes first, the peptide text is derived from it.

Key:
HIV-1IIB = assay: HIV-1 antiviral assay (CPE reduction, MTS) in CEM-SS cells; type: cell-based; settings: peptide 10 micrograms per ml, 6 days post-infection
[1] = system: hepatitis B virus (HBV) ayw strain; assay: HBV replication assay in HepG2-2.2.15 cells (TaqMan PCR of secreted HBV DNA); type: cell-based; settings: peptide 10 micrograms per ml, six days, HBV DNA by TaqMan PCR
Description: HepG2-2.2.15 is a stable cell line containing the hepatitis B virus (HBV) ayw strain genome (ATCC Cat. No. CRL-11997). Antiviral compounds blocking any late step of viral replication such as transcription, translation, pregenome encapsidation, reverse transcription, particle assembly and release can be identified and characterized using this cell line.
HepG2-2.2.15 cells were plated in 96-well microtiter plates. After 16-24 hours the confluent monolayer of HepG2-2.2.15 cells was washed and the medium was replaced with complete medium containing test peptide—10 micrograms per ml—in duplicate. […] Three days later the culture medium was replaced with fresh medium containing the peptide. Six days following the initial administration of the peptide, the cell culture supernatants was collected, treated with pronase and DNAse and then used in a real-time quantitative TaqMan PCR assay. The PCR-amplified HBV DNA was detected in real-time by monitoring increases in fluorescence signals that result from the exonucleolytic degradation of a quenched fluorescence probe molecule that hybridizes to the amplified HBV DNA. For each PCR amplification, a standard curve was simultaneously generated using dilutions of purified HBV DNA. Antiviral activity was calculated from the reduction in HBV DNA levels (% virus control). […]

[2] = Cytotoxicity (dye uptake cell viability) in HBV assay; type: cell-based; settings: human, HepG2-2.2.15 cells, peptide 10 micrograms per ml
Description: HepG2-2.2.15 cells were plated in 96-well microtiter plates. After 16-24 hours the confluent monolayer of HepG2-2.2.15 cells was washed and the medium was replaced with complete medium containing test peptide—10 micrograms per ml—in duplicate. Lamivudine (3TC) was used as the positive control, while media alone was added to the cells as a negative control (virus control). Three days later the culture medium was replaced with fresh medium containing the peptide. Six days following the initial administration of the peptide, the cell culture supernatants was collected, treated with pronase and DNAse and then used in a real-time quantitative TaqMan PCR assay. The PCR-amplified HBV DNA was detected in real-time by monitoring increases in fluorescence signals that result from the exonucleolytic degradation of a quenched fluorescence probe molecule that hybridizes to the amplified HBV DNA. For each PCR amplification, a standard curve was simultaneously generated using dilutions of purified HBV DNA. Antiviral activity was calculated from the reduction in HBV DNA levels (% virus control). A novel dye uptake assay was then employed to measure cell viability, which is used to calculate toxicity (% cell control).

HCMV strain AD169 = assay: HCMV plaque reduction assay in MRC-5 cells; type: cell-based, human cytomegalovirus; settings: peptide 10 micrograms per ml, 7-10 days
Source text: Ganciclovir was used as positive control.

[3] = Cytotoxicity testing in MRC-5 cells (CellTiter 96); type: cell-based, human; settings: human, 6 days incubation, read-out: % Cell viability
Description: (§1) The following day, peptide was added and tested in duplicates.

MRSA = type: cell-based, Staphylococcus Aureus; settings: 5 micrograms per ml
Pseudomonas aeruginosa = type: cell-based; settings: 5 micrograms per ml
Streptococcus pneumoniae = type: cell-based; settings: 5 micrograms per ml
A549 cells [4] = assay: Propidium iodide cell cycle assay; type: cell-based, human; settings: peptide 10 micrograms per ml, 24 hours, FACS
[5] = system: Human Peripheral Blood Mononuclear Cells (PBMC); assay: T cell proliferation assay (PHA, 3H-thymidine); type: cell-based; settings: peptide 10 micrograms per ml, 3H-thymidine incorporation
[6] = system: Human Peripheral Blood Mononuclear Cells (PBMC); assay: B cell proliferation assay (SAC plus Interleukin-2, 3H-thymidine); type: cell-based; settings: peptide 10 micrograms per ml, 3H-thymidine incorporation
RAW 264.7 cells = assay: Phagocytosis assay (Fluorescein-labeled Escherichia coli, flow cytometry); type: cell-based, mouse; settings: peptide 10 micrograms per ml, 30 min preincubation, 60 min ingestion
A549 cells [7] = assay: Apoptosis induction assay (Annexin-5); type: cell-based, human; settings: peptide 10 micrograms per ml, 24 hours
A549 cells [8] = assay: Apoptosis prevention assay (C2 ceramide, Annexin-5); type: cell-based, human; settings: 30 min pretreatment with peptide 10 micrograms per ml, then C2 ceramide
TNF-a = assay: Th1/Th2 cytokine profiling assay: TNF-a; type: cell-based, Balb/c mice; settings: Ovalbumin-restimulated spleen cells; peptide 10 micrograms per ml; 72 hours
IFNγ = assay: Th1/Th2 cytokine profiling assay: IFNγ; type: cell-based, Balb/c mice; settings: Ovalbumin-restimulated spleen cells; peptide 10 micrograms per ml; 72 hours
IL-2 = assay: Th1/Th2 cytokine profiling assay: IL-2; type: cell-based, Balb/c mice; settings: Ovalbumin-restimulated spleen cells; peptide 10 micrograms per ml; 72 hours
IL-4 = assay: Th1/Th2 cytokine profiling assay: IL-4; type: cell-based, Balb/c mice; settings: Ovalbumin-restimulated spleen cells; peptide 10 micrograms per ml; 72 hours
IL-5 = assay: Th1/Th2 cytokine profiling assay: IL-5; type: cell-based, Balb/c mice; settings: Ovalbumin-restimulated spleen cells; peptide 10 micrograms per ml; 72 hours
TNF alpha = TNF alpha production assay in LPS-stimulated macrophages (ELISA); type: cell-based, human; settings: PBMC-derived macrophages, peptide 10 micrograms per ml, lipopolysaccharide 200 ng/ml, overnight
Source text: Not stimulated macrophages served as negative background control.

[9] = system: Primary Human endothelial cells (HUVEC); assay: Endothelial cell migration assay; type: cell-based; settings: peptide 10 micrograms per ml, 22 hours
HUVEC = assay: Endothelial tube formation assay; type: cell-based, human; settings: peptide 10 micrograms per ml, 20 hours
Source text: Positive control was vehicle only.

[10] = Cytotoxicity (MTS cell viability) in HIV-1 experiments; settings: human, CEM-SS cells
CEM-SS cells = assay: as above; settings: peptide 10 micrograms per ml, MTS
MRC-5 cells = assay: Cytotoxicity testing in MRC-5 cells (CellTiter 96); type: cell-based, human; settings: 6 days incubation
Description: as §1

CC(C)C[C@H](NC(=O)[C@@H]1CCCN1)C(=O)NCC(N)=O [MSHRIF, Pro-Leu-Gly-NH2] (H-Pro-Leu-Gly-NH2)
% CPE reduction in HIV-1 infected CEM-SS cells (HIV-1IIB): 0.0% | % inhibition of HBV replication in HEP G2 cells [1]: 10.9% | viability at 144 h, 10 micrograms per ml [2]: 100% | % plaque reduction (HCMV strain AD169): 0.0% | viability at 144 h [3]: 100% | % inhibition (MRSA): 0.0% | % inhibition (Pseudomonas aeruginosa): 100.0% | % inhibition (Streptococcus pneumoniae): 0.0% | Cell cycle analysis G0/G1 (A549 cells [4]): 56.9 | Cell cycle analysis G2/M (A549 cells [4]): 11.7 | Cell cycle analysis S (A549 cells [4]): 31.4 | % of PHA induced control [5]: 80.8% | % of SAC/IL2 induced control [6]: 79.2% | % of control phagocytosis (RAW 264.7 cells): 145.7% | % of induction (A549 cells [7]): 0.9% | % prevention of ceramide induced apoptosis (A549 cells [8]): 0.0% | TNF-a spleen cells; TH1 response (% of control) (TNF-a): 81.4 % of control | IFNγ spleen cells; TH1 response (% of control) (IFNγ): 88.0 % of control | IL-2 spleen cells (% of control) (IL-2): 0.0 % of control | IL-4 spleen cells; TH2 response (% of control) (IL-4): 0.0 % of control | IL-5 spleen cells; TH2 response (% of control) (IL-5): 56.7 % of control | % of LPS induction (TNF alpha): 88.2% | % inhibition of migration [9]: −8% | % inhibition of tube formation (HUVEC): 9.0% | viability at 10 micrograms per ml [10]: 98.4%

Cc1cn([C@H]2C[C@H](N=[N+]=[N-])[C@@H](CO)O2)c(=O)[nH]c1=O [AZT, reference compound]
% CPE reduction in HIV-1 infected CEM-SS cells (HIV-1IIB): 99% | % Cell viability (CEM-SS cells): 97%

Nc1nc(O)c2ncn(COC(CO)CO)c2n1 [Ganciclovir, reference compound]
% Cell viability (MRC-5 cells): 100%
